In ChEMBL document CHEMBL2034862, “Exploring the binding sites of glycogen synthase kinase 3. Identification and characterization of allosteric modulation cavities” (J Med Chem, 2011):
pIC50: −log10 of the molar value. Calls of active or inactive are those of the source. The calls are words filed in the database; no cut-off is given here.

How the values were obtained:
[1] = molecular target: T1, Glycogen synthase kinase-3 beta (Homo sapiens, UniProt P49841); test: Non-competitive inhibition of human recombinant GSK3beta using GS2 as substrate after 10 mins by Glow type luminescence analysis in presence of 1 to 50 uM ATP
Target sequence in this assay (P49841 whole entry, looked up): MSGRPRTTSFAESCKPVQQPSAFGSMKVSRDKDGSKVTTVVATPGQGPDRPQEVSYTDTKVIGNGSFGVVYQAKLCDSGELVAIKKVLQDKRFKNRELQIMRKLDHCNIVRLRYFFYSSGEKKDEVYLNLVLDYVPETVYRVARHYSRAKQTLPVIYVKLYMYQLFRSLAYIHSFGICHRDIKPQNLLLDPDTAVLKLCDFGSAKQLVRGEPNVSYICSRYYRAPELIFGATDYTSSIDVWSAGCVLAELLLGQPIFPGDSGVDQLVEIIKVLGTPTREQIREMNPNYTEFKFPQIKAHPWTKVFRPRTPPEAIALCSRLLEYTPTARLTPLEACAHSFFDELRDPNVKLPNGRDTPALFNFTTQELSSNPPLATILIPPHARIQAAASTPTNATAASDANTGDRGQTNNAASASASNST

[2] = molecular target: T1, Glycogen synthase kinase-3 beta; test: Reversible inhibition of human recombinant GSK3beta using GS2 as substrate after 10 mins by Glow type luminescence analysis
Target sequence in this assay (P49841 whole entry, looked up): as above

[3] = molecular target: T1, Glycogen synthase kinase-3 beta; test: Non-competitive inhibition of human recombinant GSK3beta using GS2 as substrate after 10 mins by Glow type luminescence analysis in presence of 1 uM ATP
Target sequence in this assay (P49841 whole entry, looked up): as above

[4] = molecular target: T1, Glycogen synthase kinase-3 beta; test: Inhibition of human recombinant GSK3beta incubated for 30 mins by Kinase Glo luminescent kinase assay
Target sequence in this assay (P49841 whole entry): as the sequence (P49841 whole entry, looked up) above

[5] = molecular target: T1, Glycogen synthase kinase-3 beta; test: Non-competitive inhibition of human recombinant GSK3beta using GS2 as substrate after 10 mins by Glow type luminescence analysis
Target sequence in this assay (P49841 whole entry, looked up): as above

With `CCCCCCCCCCCC(=O)NNC(=O)c1c(O)c2ccccc2n(CC)c1=O` as the compound, how does the inhibition [1] read?
The inhibition was “Active”.

And the inhibition [2]?
Its inhibition is “Active”.

And the inhibition [3]?
Its inhibition is “Active”.

And the pIC50 [4]?
The pIC50 was 5.52.

What about the inhibition [5] of the same compound?
The inhibition was “Active”.
